Experimental data from patent US20110086813A1, “COMPOUNDS FOR TREATING BACTERIAL INFECTIONS” (priority 2008, published 2011).

Legend:
[1] = biological target: T1, Gram Negative E. coli RelA (Escherichia coli, UniProt P0AG20); assay: In vitro (p)ppGpp accumulation, RelA synthetic activity; type: biochemical; conditions: figure only
T1 construct: made in house; host or cells: deltaRelA E. coli cells, IPTG induced
Experimental: (§1) Starters of deltaRelA E. coli cells, expressing one of the following proteins (RelA, RelA638 or Relseq385) in trans, were grown overnight at 37° C. The next day, the starters were diluted 1:50 in 400 ml LBamp and the cells have continued to grow at 37° C. until they reached O.D600=˜0.6. Then, the cells were added with IPTG (1 mg/ml) and the cells were grown at the same conditions for additional 2-3 h. After that the cells were harvested for 10 min at 4000 rpm and the pellet was frozen at −80° C.
(§2) • Lysis of the pellet using “Lysis Buffer” containing Lysozyme (3 mg/ml) and ½ pill of Complete (EDTA-free). • Sonication on ice for 3.5 min. • Centrifuge the cells for 10 min at 10000 rpm. • Mix the supernatant with Ni-NTA bids for 1 h at 4° C. • Load the bids on a column and wash it with “Wash Buffer”. • Elute the protein using “Elution Buffer”.
(§3) The elution fractions were run on 12% Acryl/Bis gel and the fractions containing the most protein were taken to dialysis (two times overnight at 4° C.). After dialysis the concentration of the protein was determined using Bradford Reagent (O.D595).
(§4) In Vitro (p)ppGpp Accumulation:
(§5) 2.5 mM GTP, 20 mM ATP, 200 mM Tris HCl pH7.4, 5 mM DTT, 50 mM MgCl2
(§6) 50 mM KCl, 135 mM (NH4)2SO4, α-^32P GTP (0.1 μl per reaction), DDW
(§7) Once the buffer is added together with 1 μg of protein, 0-10 mM of inhibitor and 30 μg of ribosomes (in a total volume of 20 μl) the following reaction occurs: GTP/GDP+ATP→(p)ppGpp.
(§8) The reactions are incubated at room temperature for a period of 10-90 minutes. Then, the reactions are stopped by the addition of 5 μl of Formic acid. Once the reactions were stopped, they were placed on ice until 5 μl of each reaction were loaded on Cellulose PEI (Merck) and ran for 2 hours in 1.5M KH2PO4. The PEI was read, using image reader-1000 V1.8 and the data was analyzed by TINA 2.0 software.

[2] = biological target: T2, Relseq from Gram Positive Streptococcus equisimils (Streptococcus dysgalactiae subsp. equisimilis, UniProt Q54089); assay: In vitro (p)ppGpp accumulation, Relseq synthetic activity; type: biochemical; conditions: figure only
T2 construct: made in house; host or cells: deltaRelA E. coli cells, IPTG induced
T2 sequence (Q54089 1-385): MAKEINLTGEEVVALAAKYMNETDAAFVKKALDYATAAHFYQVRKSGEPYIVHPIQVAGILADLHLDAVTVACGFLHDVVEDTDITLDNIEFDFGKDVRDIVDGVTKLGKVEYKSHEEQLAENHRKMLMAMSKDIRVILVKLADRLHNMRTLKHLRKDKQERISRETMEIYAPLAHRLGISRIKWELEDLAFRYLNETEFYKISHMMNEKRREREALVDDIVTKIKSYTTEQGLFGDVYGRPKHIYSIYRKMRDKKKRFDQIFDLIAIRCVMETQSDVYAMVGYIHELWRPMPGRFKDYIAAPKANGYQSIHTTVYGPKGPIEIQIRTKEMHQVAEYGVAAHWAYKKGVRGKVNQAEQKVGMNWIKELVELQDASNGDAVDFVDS
Experimental: as §1, §2, §3, §4, §5, §6, §7, §8

[3] = presented as pmol (p)ppGpp per mg RelA vs. compound concentration, 0-10 mM inhibitor
[4] = separate experiment, presented as % inhibition vs. compound concentration
[5] = presented as % inhibition vs. compound concentration

T1 sequence (P0AG20 whole entry): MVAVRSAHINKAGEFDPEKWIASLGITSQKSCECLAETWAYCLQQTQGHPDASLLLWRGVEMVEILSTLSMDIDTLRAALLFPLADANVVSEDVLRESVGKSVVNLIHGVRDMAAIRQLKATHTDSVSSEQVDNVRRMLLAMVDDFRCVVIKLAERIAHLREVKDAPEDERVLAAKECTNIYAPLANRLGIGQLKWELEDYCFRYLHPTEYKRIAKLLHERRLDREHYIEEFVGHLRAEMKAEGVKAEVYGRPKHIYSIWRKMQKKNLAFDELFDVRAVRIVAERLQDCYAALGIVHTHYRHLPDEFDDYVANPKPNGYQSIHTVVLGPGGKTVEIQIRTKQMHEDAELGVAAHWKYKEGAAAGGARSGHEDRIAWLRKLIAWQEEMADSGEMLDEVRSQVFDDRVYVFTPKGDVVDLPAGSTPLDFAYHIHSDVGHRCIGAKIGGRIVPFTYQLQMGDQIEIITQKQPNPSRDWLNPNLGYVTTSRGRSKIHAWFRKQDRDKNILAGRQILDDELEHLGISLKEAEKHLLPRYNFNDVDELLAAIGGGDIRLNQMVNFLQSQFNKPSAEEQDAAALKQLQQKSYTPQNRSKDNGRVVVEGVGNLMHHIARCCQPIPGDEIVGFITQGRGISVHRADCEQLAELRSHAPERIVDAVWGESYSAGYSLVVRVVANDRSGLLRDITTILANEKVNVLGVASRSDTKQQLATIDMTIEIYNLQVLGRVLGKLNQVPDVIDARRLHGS

SMILES | inhibitory effect on RelA synthetic activity in vitro [1, 3] | inhibitory effect on RelA synthetic activity in vitro [1, 4] | inhibitory effect on Relseq synthetic activity in vitro [2, 5] | inhibitory effect on Relseq synthetic activity in vitro ([2]; presented as pmol (p)ppGpp per mg Relseq vs. compound concentration)
CC(C)C(=O)Nc1nc2c(ncn2C2OC(COP(=O)(O)CP(=O)(O)O)C(OP(=O)(O)CP(=O)(O)O)C2O)c(=O)[nH]1 (stereo not drawn) [Compound D8] | inhibitory effect | inhibitory effect | – | –
CC(C)C(=O)Nc1nc2c(ncn2C2OC(COP(=O)(O)CP(=O)(O)O)C(O[Si](C)(C)C(C)(C)C)C2OP(=O)(O)CP(=O)(O)O)c(=O)[nH]1 (stereo not drawn) [Compound D6] | inhibitory effect | inhibitory effect | – | –
Nc1nc2c(ncn2[C@@H]2O[C@H](COP(=O)(O)CP(=O)(O)O)C(O)C2O)c(=O)[nH]1 (stereo partly drawn) [Compound A1] | inhibitory effect | inhibitory effect | inhibitory effect | –
CC(C)C(=O)Nc1nc2c(ncn2C2OC(COP(=O)(O)CP(=O)(O)O)C(OP(=O)(O)CP(=O)(O)O)C2O[Si](C)(C)C(C)(C)C)c(=O)[nH]1 (stereo not drawn) [Compound D7] | inhibitory effect | inhibitory effect | – | –
Nc1nc2c(ncn2[C@H]2CC(OP(=O)(O)CP(=O)(O)O)[C@@H](COP(=O)(O)CP(=O)(O)O)O2)c(=O)[nH]1 (stereo partly drawn) [Compound D3, 5′,3′-O-di-[methylene-(bisphosphonate)]-2′-deoxyguanosine] | inhibitory effect | inhibitory effect | inhibitory effect | inhibitory effect
CC(C)C(=O)Nc1nc2c(ncn2C2OC(COP(=O)(O)CP(=O)(O)O)C(O)C2OP(=O)(O)CP(=O)(O)O)c(=O)[nH]1 (stereo not drawn) [Compound D2c] | – | inhibitory effect | – | –
Nc1nc2c(ncn2[C@@H]2O[C@H](COP(=O)(O)CP(=O)(O)O)C(OP(=O)(O)CP(=O)(O)O)C2O)c(=O)[nH]1 (stereo partly drawn) [Compound D1c] | – | inhibitory effect | inhibitory effect | –
CC1(C)OC2C(COP(=O)(O)CP(=O)(O)O)OC(n3cnc4c(=O)[nH]c(N)nc43)C2O1 (stereo not drawn) [Compound E3b] | inhibitory effect | inhibitory effect | inhibitory effect | –
Nc1nc2c(ncn2[C@@H]2O[C@H](COP(=O)(O)CP(=O)(O)O)C(O)C2OP(=O)(O)CP(=O)(O)O)c(=O)[nH]1 (stereo partly drawn) [Compound D2b] | – | inhibitory effect | inhibitory effect | –
